The results in this text go back to patent US11299472B2, “Fumarate salt of (R)-3-(1-(2,3-dichloro-4-(pyrazin-2-yl)phenyl)-2,2,2- trifluoroethyl)-1-methyl-1-(1-methylpiperidin-4-yl) urea, methods of preparation, and uses thereof” (Helsinn Healthcare SA, priority 2017, dated 2022).

Data set [1] relates to Snord116+/− (Het) mice and wild-type (WT) littermates. Put plainly: Glucose tolerance in Prader-Willi mouse model. The format is in vivo. The source says:
The effect of HM04 fumarate salt on food intake behavior and glucose tolerance was investigated in the Snord116+/−(Het) mouse genetic model of Prader-Willi syndrome (Het mouse) compared to wild-type (WT) littermates. Since D2R agonists suppress food intake, the FDA approved D2R agonist cabergoline was used as an experimental control. Phenotypic characteristics of this PWS mouse model include hyperphagia, postnatal growth retardation, high ghrelin, and low growth hormone. Ding F., et al. SnoRNA Snord116 (Pwcr1/MBII-85) deletion causes growth deficiency and hyperphagia in mice. PloS one. 2008; 3(3):e1709. These PWS mice eat more frequently than WT littermates, particularly during the light cycle and are more motivated to work for food (more level presses) (data not shown).

Data set [2] is described as follows: Dog pharmacokinetic study, single oral HM04 fumarate salt 3, 10, 30 mg/kg (Example 10). It counts as in vivo, male Beagle dogs. As to the method: (§1) The pharmacokinetics of HM04 in plasma after single oral administration of HM04 fumarate salt to 6-week old male Sprague Dawley rats and male Beagle dogs (1-5 years of age) was investigated. Test formulations of 0.6 mg/mL, 2 mg/mL, and 6 mg/mL HM04 fumarate salt (based on weight of the free base) were prepared in 5% glucose solution. Doses of 3, 10, and 30 mg/kg HM04 fumarate salt (based on weight of the free base) were administered by gastric gavage as a 5 mL/kg dose volume of each of the three test formulations. Four animals were in each dose group. The formulation was administered to the dogs in fasting conditions with food provided three hours post-dosing.
Oral absolute bioavailability at 3 mg/kg was calculated from the ratio of individual oral AUC∞ to the individual AUC∞ values determined following intravenous administration of 3 mg/kg HM04 fumarate salt (based on weight of the free base) to the same four male Beagle dogs.
Oral absolute bioavailability at 10 mg/kg was calculated from the ratio of individual oral AUC∞ to the individual AUC∞ values determined following intravenous administration of 10 mg/kg HM04 fumarate salt (based on weight of the free base) to the same four male Beagle dogs.
(§2) Plasma HM04 concentrations were measured by LC-MS/MS following protein precipitation in the 96-well plate format. At the time of analysis samples were thawed out at ambient temperature. Aliquots of 25 μL of rat or dog K3EDTA plasma were spiked with 300 μL of internal standard (25 ng/mL of HM04-d8 in acetonitrile). After gentle vortex mixing for 5 minutes and centrifugation at 2010 g for 15 minutes at 4° C., an aliquot of 100 μL of the organic phase was transferred into a fresh 96-well polypropylene plate, using a P3-Evolution robotic system (Perkin Elmer). Following dilution with 100 μL of […] ammonium formate pH 3.5, an aliquot of 10 μL was injected into the LC-MS/MS system.

A short description of data set [3]: Rat pharmacokinetic study, single oral HM04 fumarate salt 3, 10, 30 mg/kg (Example 10). The format is in vivo, male Sprague Dawley rats. As to the method: as §1
A comparison of the plasma concentration of HM04 (ng/mL) in rats over time is provided in FIG. 19 and a summary of the pharmacokinetic analysis is provided in Table 5, below. […] The standard deviation associated with the mean oral bioavailability was calculated according to the formula: SDq=[^2√{square root over ((my^2·SDx^2+mx^2−SDy^2))}]/my^2 where q=mean bioavailability; mx=oral dose-normalized mean AUC, and my=IV dose-normalized mean AUC.
as §2

Take `CN1CCC(N(C)C(=O)N[C@H](c2ccc(-c3cnccn3)c(Cl)c2Cl)C(F)(F)F)CC1` [HM04, (R)-3-(1-(2,3-dichloro-4-(pyrazin-2-yl)phenyl)-2,2,2-trifluoroethyl)-1-methyl-1-(1-methylpiperidin-4-yl)urea]: the glucose tolerance result was “did not show an improvement in glucose tolerance” in data set [1] (Het mice) and “an effect was observed” in data set [1] (WT mice). Also, the “detectable pre-dose concentrations of HM04” value in data set [2] (3 mg/kg oral, three of the four dogs, range) is 5.15 to 8.31 ng/mL. Besides, the detectable pre-dose concentration in data set [2] (oral 10 mg/kg, Dog 2) amounted to 8.60 ng/mL. The bioavailability in data set [3] (male, Sprague Dawley, plasma, oral doses of 3 and 10 mg/kg) fell in the range of 40 to 50%. In data set [3] (oral 3, 10, 30 mg/kg), the “exposure to HM04 versus dose” value was “more than a proportional increase at 30 mg/kg”.

The bioavailability is the share of a dose that reaches the circulation, judged against a reference dose that is usually intravenous.
